Data set [1] deals with SARS-CoV-2 Main Protease (SARS-CoV-2) (UniProt P0DTD1).
Data set [2] has the same target. This is another data set of the same source.

`Cc1cnc(CC(=O)Nc2cccnc2)o1` yielded a relative solubility at 20 uM of 0.99 and a relative solubility at 100 uM of 1. The inhibition (as a rule, the drop in the measured response relative to a control, in per cent) in data set [1] (50.0 µM) is -9.91%. The inhibition in data set [2] (20.0 µM) came out at 0%. In addition, the inhibition in data set [2] (50.0 µM) was 0%.

`O=C(c1ccccc1)N1CCN(C(=O)c2nn(-c3ccccc3C(F)(F)F)cc2O)CC1`: the relative solubility at 20 uM was found to be 0.99 and the relative solubility at 100 uM turned out to be 0.95. In addition, the inhibition in data set [1] (20.0 µM) is -48%. In addition, in data set [1] (50.0 µM), the inhibition was -1.44%. Further, the inhibition in data set [2] (50.0 µM) worked out at 0%.

Take `CC(C)N(C)C(=O)C1CCN(C(=O)CCl)CC1`: the relative solubility at 20 uM stood at 1 and the relative solubility at 100 uM turned out to be 1. In data set [1] (20.0 µM), the inhibition came to 17.3%. The inhibition in data set [1] (50.0 µM) was 38.8%. In addition, the inhibition in data set [2] (20.0 µM) was -0.0976%.

Molecule `COc1ccccc1OC1CCCN(C(=O)c2cc(=O)[nH]c3ccc(Cl)cc23)C1` (configuration not stated) displayed a relative solubility at 20 uM of 0.99 and a relative solubility at 100 uM of 0.93. In data set [1] (20.0 µM), the inhibition is -0.617%. In addition, the inhibition in data set [1] (50.0 µM) is 5.27%. Further, the inhibition in data set [2] (50.0 µM) is 0%.

`Cc1cc(C(C)(C)C)ccc1OC[C@H](O)Cn1cnccc1=O` (stereo in doubt) displayed a relative solubility at 20 uM of 1.01 and a relative solubility at 100 uM of 1. Moreover, in data set [1] (20.0 µM), the inhibition is -3.67%. Besides, the inhibition in data set [1] (50.0 µM) stood at 16.5%. Besides, in data set [2] (50.0 µM), the inhibition is 0%.

Molecule `C=CC(=O)N(c1ccc(C(C)(C)C)cc1)C(C(=O)NCc1ccccc1)c1cccnc1` (configuration not stated) displayed a relative solubility at 20 uM of 0.99 and a relative solubility at 100 uM of 0.89. The inhibition in data set [1] (20.0 µM) was determined as 42.3%. Besides, the inhibition in data set [1] (50.0 µM) was 66.6%. Besides, in data set [2], the IC50 – broadly, the concentration that gives 50% inhibition – was 14.3 µM. Also, the inhibition in data set [2] (20.0 µM) is 69.1%. Besides, the inhibition in data set [2] (50.0 µM) is 100%.

On to `C=CC(=O)N(c1ccc(S(F)(F)(F)(F)F)cc1)C(C(=O)Nc1c(C)cccc1CC)c1cccnc1` (configuration not stated), for which the relative solubility at 20 uM worked out at 0.85 and the relative solubility at 100 uM is 0.73. Further, the inhibition in data set [1] (20.0 µM) is 3.13%. Moreover, the inhibition in data set [1] (50.0 µM) was found to be 7.07%. Also, in data set [2] (20.0 µM), the inhibition is 4.69%.

In turn, `O=C(CCl)N1CCN(S(=O)(=O)c2cccs2)CC1` came in with a relative solubility at 20 uM of 1 and a relative solubility at 100 uM of 1. In data set [1] (20.0 µM), the inhibition was found to be 99.3%. The inhibition in data set [1] (50.0 µM) was determined as 99.6%. The molecule also returned an IC50 in data set [2] of 0.557 µM. The inhibition in data set [2] (20.0 µM) was 97.9%. Further, the inhibition in data set [2] (50.0 µM) turned out to be 97.8%.

Consider `C=CC(=O)N1CCN(Cc2c[nH]c3ccc(C#N)cc23)CC1`, for which the relative solubility at 20 uM was determined as 0.97 and the relative solubility at 100 uM was 0.92. For the same molecule, the inhibition in data set [1] (20.0 µM) is -36.2%. In addition, in data set [1] (50.0 µM), the inhibition is -27.1%. In addition, the inhibition in data set [2] (20.0 µM) stood at 0%. Besides, the inhibition in data set [2] (50.0 µM) amounted to 0%.

`C=CC(=O)N(c1cc(C(C)(C)C)n[nH]1)C(C(=O)Nc1c(C)cccc1CC)c1cccnc1` (configuration not stated): the relative solubility at 20 uM is 0.92 and the relative solubility at 100 uM was 0.78. In addition, the inhibition in data set [1] (20.0 µM) came to 4.05%. In addition, in data set [1] (50.0 µM), the inhibition turned out to be 4.71%. The inhibition in data set [2] (20.0 µM) came to 0%.

Molecule `C=CC(=O)N(c1ccc(C(C)(C)C)cc1)C(C(=O)NCc1ccc(F)cc1)c1cccnc1` (configuration not stated) yielded a relative solubility at 20 uM of 0.98 and a relative solubility at 100 uM of 0.66. In data set [1] (20.0 µM), the inhibition stood at 51.2%. In addition, the inhibition in data set [1] (50.0 µM) was 76.4%. Further, the IC50 in data set [2] is 10.5 µM. Besides, the inhibition in data set [2] (20.0 µM) worked out at 79.3%. The inhibition in data set [2] (50.0 µM) was 100%.

In turn, `CC(NC(=O)c1ccc2cn[nH]c2c1)C(=O)Nc1ccc(-n2cnc3ccccc32)cc1` (configuration not stated) yielded a relative solubility at 20 uM of 0.7 and a relative solubility at 100 uM of 0.51. Besides, in data set [1] (20.0 µM), the inhibition was determined as 13%. Also, the inhibition in data set [1] (50.0 µM) amounted to 3.73%. For the same molecule, in data set [2] (50.0 µM), the inhibition was 12.8%.

As for `CN(C)c1ncccc1N(C)C(=O)C1CCOc2ccc(Cl)cc21` (configuration not stated), the relative solubility at 20 uM was 1 and the relative solubility at 100 uM is 0.99. In addition, the inhibition in data set [1] (20.0 µM) turned out to be 1.42%. For the same molecule, the inhibition in data set [1] (50.0 µM) was -4.96%. Also, the inhibition in data set [2] (50.0 µM) worked out at 0%.

In turn, `NS(=O)(=O)c1ccc(N2CCC(c3nc4ccccc4s3)CC2)cc1` came in with a relative solubility at 20 uM of 0.76 and a relative solubility at 100 uM of 0.52. In addition, the inhibition in data set [1] (20.0 µM) was -11.9%. Moreover, in data set [1] (50.0 µM), the inhibition was -12%. For the same molecule, the inhibition in data set [2] (20.0 µM) was 0%.
